From patent US8163702B2, “Treatment of melanoma” (SciClone Pharmaceuticals, Inc., priority 2006, dated 2012)

Columns and labels:
[1] = tested on: B16 melanoma; test: B16 melanoma tumor growth, tumor weight and survival in C57/Bl6 mice, i.p. treatment (Example 1); assay type: in vivo; settings: for animals surviving: After 26 days
Description: Tumors were induced by injecting 1×10^6 B16 melanoma cells subcutaneously in the hind leg of C57/Bl6 syngeneic mice. Mice were randomized into 5 groups of 10 animals and treated with SCV-07 at doses of 0.001, 0.01, or 0.10 mg/kg administered daily i.p. for 3 consecutive days for 2 weeks, starting 3 days after tumor implantation. Control groups were treated with saline or dacarbazine (DTIC) at a dose of 50 mg/kg i.p. for 3 days. Tumor growth was assessed every 3 days by a caliper and tumor weight was measured upon death.
Mice were injected with B16 melanoma cells and divided into 5 groups of 10 mice each. Control mice were given injections of saline or dacarbazine (DTIC). The effects of different doses of SCV-07 were examined with respect to tumor growth rate and survival time.

[2] = tested on: B16 cell line; test: In vitro cell sensitivity: cell proliferation and viability by trypan blue dye exclusion; assay type: cell-based, murine
Description: In vitro cell sensitivity studies were performed on a B16 cell line. Subconfluent melanoma cells were harvested, suspended in complete medium and seeded into 24-well plates (10^5 cells in a final volume of 2 ml/well). The cells were treated in triplicate wells for 24, 48 or 72 hr of culture with graded concentrations of SCV-07 ranging from 0.1 to 100 μg/ml. Cell proliferation and viability were determined by the trypan blue dye exclusion method by manually counting the cells with a hemocytometer.

[3] = tested on: B16 cell line; test: Apoptosis by DNA flow cytometric analysis (propidium iodide); assay type: cell-based, murine; settings: propidium iodide flow cytometry
Description: Apoptosis was assessed by DNA flow cytometric analysis. At each concentration of SCV-07, adherent cells were detached from the plates by trypsinization, pooled with the floating cells and fixed with 50% acetone:methanol 1:4 in PBS. The cells were suspended (1×10^6/ml) in PBS containing 50 μg/ml of propidium iodide (PI) and 100 KU/ml of RNase and incubated in the dark at room temperature for 30 min. The DNA content per cell was evaluated by PI fluorescence measured on a linear scale using a FACScan flow cytometer (Becton & Dickinson, San Jose, Calif.). Apoptotic cells show a diminished staining, in the red fluorescence channel, below the G0/G1 population of normal diploid cells, and are represented by a broad hypodiploid peak due to DNA fragmentation following apoptotic events. This is easily distinguishable from the narrow peak of cells with diploid DNA content. The fraction of apoptotic cells was therefore calculated by integrating the pre-G1 peak.

[4] = tested on: thymocyte and lymphocyte; settings: cited from earlier work
[5] = tested on: spleen lymphocytes; settings: cited from earlier work
[6] = tested on: bone marrow cells; settings: cited from earlier work
[7] = 5-FU-immune-suppressed animals; immunization with sheep red blood cells; cited from earlier work
[8] = tested on: T helper cells; settings: previous studies; cited from earlier work

In the case of `N[C@H](CCC(=O)N[C@@H](Cc1c[nH]c2ccccc12)C(=O)O)C(=O)O` [SCV-07, γ-D-glutamyl-L-tryptophan], the animals surviving ([1]; SCV-07 highest dose (0.10 mg/kg i.p.)) was 21%, the animals surviving ([1]; SCV-07 lower doses) was “no surviving animals” and the “MEAN TUMOR VOLUME” value ([1]; DAY 10 after tumor inoculation, SCV-07 0.001 mg/kg i.p.) was 540 ± 180 mm^3. For the same molecule, the “MEAN TUMOR VOLUME” value ([1]; DAY 10 after tumor inoculation, SCV-07 0.01 mg/kg i.p.) was 490 ± 120 mm^3, the “MEAN TUMOR VOLUME” value ([1]; DAY 10 after tumor inoculation, SCV-07 0.10 mg/kg i.p.) was 420 ± 150 mm^3 and the “MEAN TUMOR VOLUME” value ([1]; DAY 17 after tumor inoculation, SCV-07 0.001 mg/kg i.p.) was 625 ± 270 mm^3. The “MEAN TUMOR VOLUME” value ([1]; DAY 17 after tumor inoculation, SCV-07 0.01 mg/kg i.p.) was 581 ± 210 mm^3, the “MEAN TUMOR VOLUME” value ([1]; DAY 17 after tumor inoculation, SCV-07 0.10 mg/kg i.p.) was 495 ± 190 mm^3 and the “MEAN TUMOR VOLUME” value ([1]; DAY 24 after tumor inoculation, SCV-07 0.001 mg/kg i.p.) was 880 ± 240 mm^3. For the same molecule, the “MEAN TUMOR VOLUME” value ([1]; DAY 24 after tumor inoculation, SCV-07 0.01 mg/kg i.p.) was 720 ± 150 mm^3, the “MEAN TUMOR VOLUME” value ([1]; DAY 24 after tumor inoculation, SCV-07 0.10 mg/kg i.p.) was 533 ± 170 mm^3 and the tumor growth ([1]; SCV-07 0.001, 0.01, 0.10 mg/kg i.p.) was “inhibited tumor growth in a dose-dependent manner”. The “mean tumor weight lower” value ([1]; highest dose of SCV-07 (0.10 mg/kg i.p.), weight upon death) was 35%, the “mean tumor weight lower” value ([1]; lower doses of SCV-07 (0.001, 0.01 mg/kg i.p.)) was 20% and the “effect on cell growth by direct cell counts” value ([2]; 24 and 48 hrs of culture, 0.1 to 100 μg/ml) was “dose-dependent inhibitory effect on cell growth”. For the same molecule, the “effect on number of viable cells” value ([2]; higher concentration (100 μg/ml)) was “toxic effects with a dramatic decrease in the number of viable cells”, the “effect on cell growth” value ([2]; low concentration) was “substantially cytostatic” and the “percentage of apoptotic cell death” value [3] was “could not evidence any significant effect”. For the same molecule, the “Con-A-induced thymocyte and lymphocyte proliferation” value [4] was “increases”, the “Con-A-induced interleukin-2 (IL-2) production and IL-2 receptor expression” value [5] was “increases” and the “expression of Thy-1.2” value [6] was “stimulates”. For the same molecule, the immunostimulatory effect [7] was “strong immunostimulatory effect”, the “IFN-γ production by thymic and spleen cells and circulating level in serum” value [8] was “increased” and the “T helper cell polarization” value [8] was “stimulates a shift of T helper cells towards a TH1-like immune response”.
